In patent US20190022152A1, “MICROBIOME RESPONSE TO AGENTS” (Yeda Research and Development Co., Ltd., priority 2014, published 2019):

Assays:
mice = experiment: Oral glucose tolerance test in mice drinking non-caloric artificial sweeteners (NAS); format: in vivo
Text: (§1) C57Bl/6 WT adult male mice were randomly assigned (without blinding) to treatment groups and were given commercial artificial sweeteners (saccharin-, sucralose- or aspartame-based) or pure saccharin (Sigma Aldrich) in drinking water and fed a high-fat (HFD D12492, 60% Kcal from fat, Research Diets) or standard polysaccharide normal chow (NC) diet (Harlan-Teklad). Compared groups were always fed from the same batch of diet. For antibiotic treatment, mice were given a combination of ciprofloxacin (0.2 gl^−1) and metronidazole ([…]) or vancomycin (0.5 gl^−1) in their drinking water. All antibiotics were obtained from Sigma Aldrich. Adult male outbred Swiss-Webster mice (a widely used mouse strain in germ-free experiments) served as recipients for fecal transplants and were housed in sterile isolators (Park Biosciences). For fecal transplantation experiments, 200 mg of stool (from mouse pellets or human swabs) was resuspended in 5 ml of PBS under anaerobic conditions, vortexed for 3 minutes and allowed to settle by gravity for 2 minutes. Recipient mice were gavaged with 200 μl of the supernatant and maintained on standard NC diet and water throughout the experiment.
The following commercially available NAS were dissolved in mice drinking water to obtain a 10% solution: Sucrazit (5% saccharin, 95% glucose), Sucralite (5% Sucralose), Sweet'n Low Gold (4% Aspartame). 10% glucose (J.T. Baker) and 10% sucrose (Sigma Aldrich) solutions were used for controls. […] For experiments conducted with pure saccharin (Sigma Aldrich) a 0.1 mgml^−1 solution was used in order to meet with FDA defined ADI for saccharin in humans (5 mgkg^−1), according to the following calculation:
(§2) Mice were fasted for 6 hours during the light phase, with free access to water. In all groups of mice where the drinking regime was other than water, it was substituted for water for the period of the fasting and glucose or insulin tolerance test. Blood from the tail vein was used to measure glucose levels using a glucometer (Bayer) immediately before and 15, 30, 60, 90 and 120 minutes after oral feeding with 40 mg glucose (J.T. Baker) or intra-peritoneal injection with 0.1 Ukg^−1 Insulin (Biological Industries). Plasma fasting insulin levels were measured in sera collected immediately before the start of GTT using ELISA (Ultra Sensitive Mouse Insulin ELISA Kit, Crystal Chem).

[1] = system: germ-free Swiss-Webster mice; experiment: Fecal or culture transplantation into germ-free mice followed by OGTT; format: in vivo
Text: as §1, §2
pooled fecal matter from naïve adult WT C57Bl/6 male mice was resuspended in 5 ml PBS in an anaerobic chamber (Coy Laboratory Products, 75% N2, 20% CO2, 5% H2), vortexed for 3 minutes and allowed to settle by gravity for 2 minutes. […] were added to a tube containing Chopped Meat Carbohydrate Broth, PR II (BD) and […] of a 5 mgml-1 saccharin solution or an equal volume of PBS. Every 3 days, 500 ml of culture were diluted to fresh medium containing saccharin or PBS. After 9 days, cultures were used for inoculation of germ-free mice.

fecal microbiota = system: fecal microbiota
Method: Frozen fecal samples were processed for DNA isolation using the MoBio PowerSoil kit according to the manufacturer's instructions. 1 ng of the purified fecal DNA was used for PCR amplification and sequencing of the bacterial 16S rRNA gene. ˜365 bp Amplicons spanning the variable region 2 (V2) of the 16S rRNA gene were generated by using the following barcoded primers: Fwd 5′-[…]-3′ (SEQ ID NO: 3), Rev 5′-[…]-3′ (SEQ ID NO: 4). […] Reads were then processed using the QIIME (Quantitative Insights Into Microbial Ecology) analysis pipeline as described, version 1.8. Paired-end joined sequences were grouped into operational taxonomic units (OTUs) using the UCLUST algorithm and the greengenes database. Sequences with distance-based similarity of 97% or greater over median sequence length of 353 bp were assigned to the same OTU. Samples were grouped according to the treatment. Analysis was performed at each taxonomical level (Phylum-genus+OTU level) separately. For each taxon, G test was performed between the different groups. P-values were FDR corrected for multiple hypothesis testing.

O=C1NS(=O)(=O)c2ccccc21 [saccharin]
glucose tolerance (OGTT) (mice; C57Bl/6 mice on HFD, 0.1 mgml^−1 pure saccharin in drinking water vs water, from 5 weeks, p<0.0002): impaired glucose tolerance | glucose tolerance (OGTT) (mice; HFD-fed outbred Swiss Webster mice, 0.1 mgml^−1 pure saccharin, 5 weeks, p<0.03): significant glucose intolerance | glucose tolerance of germ-free recipients ([1]; D7 (post exposure) vs D1 stool from human NAS responders after 7 days commercial saccharin, P<0.004, P<0.02): significant glucose intolerance | glucose tolerance of germ-free recipients ([1]; D7 vs D1 stool from two human NAS non-responders): normal glucose tolerance | glucose tolerance of germ-free recipients ([1]; donors HFD-consuming mice drinking pure saccharin vs water, p<0.004): replicated the glucose intolerance phenotype | glucose tolerance of germ-free recipients ([1]; recipients of in vitro saccharin-treated (5 mgml^−1) fecal culture vs control culture, 6 days, p<0.002): significantly higher glucose intolerance | microbiota composition (dysbiosis) (fecal microbiota; mice consuming pure saccharin and HFD): dysbiosis was observed | operational taxonomic units (OTUs) significantly altered in abundance (fecal microbiota; saccharin-consuming mice vs all control groups, week 11, FDR corrected p<0.05 (FIG. 21: commercial saccharin)): > 40
